According to patent publication US5703094A, “Quinolone- and naphthyridonecarboxylic acid derivatives” (Bayer Aktiengesellschaft, priority 1995, dated 1997):
Converted amounts (≈) assume the structure as drawn.

Legend:
Staph. aureus 133 = assay: minimum inhibitory concentration, series dilution method on Iso-Sensitest agar; format: cell-based; details: Staphylococcus aureus, 37° C., about 20 hours
Protocol: (§1) Tables 9 and 10 show the minimum inhibitory concentrations (MIC values), as a measure of the antibacterial activity, and the ID50 values, as a measure of the interactions with mammalian DNA of a substance, both for compounds according to the invention and for reference compounds from the prior art (EP 520 240).
(§2) The minimum inhibitory concentrations (MIC) were determined by a series dilution method on Iso-Sensitest agar (Oxoid). For each test substance, a series of agar plates each comprising concentrations of the active compound decreasing by double dilution in each case was prepared. The agar plates were inoculated with a multipoint inoculator (Denley). Overnight cultures of the pathogens which had been diluted beforehand such that each inoculation point comprised about 10^4 colony-forming particles were used for the inoculation. The inoculated agar plates were incubated at 37° C. and the germ growth was read off after about 20 hours. The MIC value (μg/ml) indicates the lowest active compound concentration at which no growth was detectable with the naked eye.

Ps. aeruginosa Walter = assay: as above; format: cell-based; details: Pseudomonas aeruginosa, 37° C., about 20 hours
Protocol: as §1, §2

Staph. aureus ICB 25701 = assay: as above; format: cell-based; details: Staphylococcus aureus, ICB25701, 37° C., about 20 hours
Protocol: as §1, §2

E. coli Neumann = assay: as above; format: cell-based; details: Escherichia coli, 37° C., about 20 hours
Protocol: as §1, §2

[1] = inhibition of DNA synthesis in CHO-KI cells (interactions with mammalian DNA), fluorophotometric; format: cell-based, Chinese hamster; details: hamster, cho-k1 cells, measure of interactions with mammalian DNA, read-out: ID50 (concentration at which DNA synthesis is inhibited by 50%)
Excerpt: as §1
The ID50 is understood as meaning the concentration of a substance at which DNA synthesis in cells from ovaries of the Chinese hamster (CHO-KI) is inhibited by 50%. This value is determined after incubation of the corresponding substances in decreasing dilution stages over defined periods of time. For this, the DNA synthesis in CHO-KI cells is determined in comparison with controls by means of fluorophotometric methods.

SMILES | MIC (Staph. aureus 133) [µg/mL] | MIC (Ps. aeruginosa Walter) [µg/mL] | MIC (Staph. aureus ICB 25701) [µg/mL] | MIC (E. coli Neumann) [µg/mL] | IC50 [1] [µg/mL]
N[C@@H]1CCC=C2CN(c3c(F)cc4c(=O)c(C(=O)O)cn([C@@H]5C[C@@H]5F)c4c3F)C[C@@H]21 (relative stereo) [Example 4, 7-[(3aRS,4RS)-4-amino-2,3,3a,4,5,6-hexahydro-1H-isoindol-2-yl]-6,8-difluoro-1-(cis-2-fluorocyclopropyl)-1,4-dihydro-4-oxo-3-quinolinecarboxylic acid] | ≤ 0.015 | 0.25 (≈ 0.596 µM) | 0.03 (≈ 0.0715 µM) | ≤ 0.015 | 2 (≈ 4.77 µM)
N[C@@H]1CCC=C2CN(c3c(F)cc4c(=O)c(C(=O)O)cn(C5CC5)c4c3F)C[C@@H]21 (racemic) [Example 1, 7-[(3aRS,4RS)-4-amino-2,3,3a,4,5,6-hexahydro-1H-isoindol-2-yl]-1-cyclopropyl-6,8-difluoro-1,4-dihydro-4-oxo-3-quinolinecarboxylic acid] | ≤ 0.015 | 0.125 (≈ 0.311 µM) | ≤ 0.015 | ≤ 0.015 | 4 (≈ 9.96 µM)
NC1C=CCC2CN(c3c(F)cc4c(=O)c(C(=O)O)cn(C5CC5)c4c3F)CC12 (centres unmarked) [Example 17 B, 7(4-amino-1,3,3a,4,7,7a-hexahydro-isoindol-2-yl)-1-cyclopropyl-6,8-difluoo-1,4-dihydro-4-oxo-3-quinolinecarboxylic acid, reference compound] | ≤ 0.015 | 0.25 (≈ 0.623 µM) | 0.03 (≈ 0.0747 µM) | ≤ 0.015 | 0.01 (≈ 0.0249 µM)
NC1C=CCC2CN(c3c(F)cc4c(=O)c(C(=O)O)cn(C5CC5)c4c3Cl)CC12 (centres unmarked) [Example 18 A, 7(4-amino-1,3,3a4,7,7a-hexahydro-isoindol-2-yl)-8-chloro-1-cyclopropyl-6-luoro-1,4-dihydro-4-oxo-3-quinolinecarboxylic acid, reference compound] | ≤ 0.015 | 0.25 (≈ 0.598 µM) | ≤ 0.015 | ≤ 0.015 | 0.06 (≈ 0.144 µM)
NC1C=CCC2CN(c3cc4c(cc3F)c(=O)c(C(=O)O)cn4C3CC3)CC12 (centres unmarked) [Example 19, 7(4-amino-1,3,3a,4,7,7a-hexahydro-isoindol-2-yl)-1-cyclopropyl-6-fluoro-14-dihydro-4-oxo-3-quinolinecarboxylic acid, reference compound] | ≤ 0.015 | 1 (≈ 2.61 µM) | 1 (≈ 2.61 µM) | ≤ 0.015 | 1 (≈ 2.61 µM)

Now from value to molecule:

MIC (Staph. aureus 133) [µg/mL] | MIC (Ps. aeruginosa Walter) [µg/mL] | MIC (Staph. aureus ICB 25701) [µg/mL] | MIC (E. coli Neumann) [µg/mL] | IC50 [1] [µg/mL] | SMILES
≤ 0.015 | 1 (≈ 2.61 µM) | 0.125 (≈ 0.326 µM) | ≤ 0.015 | 2 (≈ 5.22 µM) | N[C@@H]1CCC=C2CN(c3cc4c(cc3F)c(=O)c(C(=O)O)cn4C3CC3)C[C@@H]21 (racemic) [Example 2, 7-[(3aRS,4RS)-4-amino-2,3,3a,4,5,6-hexahydro-1H-isoindol-2-yl]-1-cyclopropyl-6-fluoro-1,4-dihydro-4-oxo-3-quinolinecarboxylic acid]
≤ 0.015 | 0.5 (≈ 1.2 µM) | ≤ 0.015 | ≤ 0.015 | 0.1 (≈ 0.239 µM) | N[C@@H]1CCC=C2CN(c3c(F)cc4c(=O)c(C(=O)O)cn(C5CC5)c4c3Cl)C[C@@H]21 (racemic) [Example 3, 7-[(3aRS,4RS)-4-amino-2,3,3a,4,5,6-hexahydro-1H-isoindol-2-yl]-8-chloro-1-cyclopropyl-6-fluoro-1,4-dihydro-4-oxo-3-quinolinecarboxylic acid]
